# Test results published in PubChem BioAssay (NCI).
#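 Growth conditions: 96-well plates. Treatment: test compound, 48 hours, 5 concentrations. Analysis: linear interpolation between bracketing concentrations; unreached endpoints set to highest concentration. At the TGI there is no net growth.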
# What was measured:
# Test in all cases: growth of human tumour cells (NCI), 48 h
# [1] = system: HOP-92 NSCLC
# [2] = system: CCRF-CEM leukemia
# [3] = system: ACHN renal
# [4] = system: M19-MEL melanoma
# [5] = system: KM20L2 colon
# [6] = system: COLO 205 colon
# [7] = system: OVCAR-4 ovarian
# [8] = system: UACC-62 melanoma
# [9] = system: CAKI-1 renal
# [10] = system: LOX IMVI melanoma
# [11] = system: TK-10 renal
# [12] = system: SNB-75 CNS
# [13] = system: SNB-78 CNS
# [14] = system: HCC-2998 colon
# [15] = system: DMS 273 small cell lung
# [16] = system: U251 CNS
# [17] = system: IGROV1 ovarian
# [18] = system: SK-OV-3 ovarian
# [19] = system: HCT-116 colon
# [20] = system: HCT-15 colon
# [21] = system: OVCAR-8 ovarian
# [22] = system: HL-60(TB) leukemia
# [23] = system: NCI-H460 lung
# [24] = system: A549 NSCLC
# [25] = system: SK-MEL-5 melanoma
# [26] = system: RPMI-8226 leukemia
# [27] = system: MALME-3M melanoma
# [28] = system: MOLT-4 leukemia
# [29] = system: HT29 colon
# [30] = system: 786-0 renal
# [31] = system: UO-31 renal
# [32] = system: SK-MEL-2 melanoma
# [33] = system: SW-620 colon
# [34] = system: K-562 leukemia
# [35] = system: OVCAR-5 ovarian
# [36] = system: SF-295 CNS
# [37] = system: SK-MEL-28 melanoma
# [38] = system: KM12 colon
# [39] = system: NCI-H226 lung
# [40] = system: OVCAR-3 ovarian
# [41] = system: HOP-18 NSCLC
# [42] = system: UACC-257 melanoma
# [43] = system: HOP-62 NSCLC
# [44] = system: DLD-1 colon
# [45] = system: XF 498 CNS
# [46] = system: RXF 393 renal
# [47] = system: SN12C renal
# [48] = system: LXFL 529 NSCLC
# [49] = system: EKVX NSCLC
# [50] = system: SNB-19 CNS
# [51] = system: NCI-H522 lung
# [52] = system: M14 melanoma
# [53] = system: SF-268 CNS
# [54] = system: SF-539 CNS
# [55] = system: NCI-H23 lung
# [56] = system: SR leukemia
# [57] = system: A498 renal
compound,measurement,setting,value
CCOC(=O)CN(Cn1cncn1)Cn1cncn1,TGI,[1],> 100 µM
same,TGI,[2],> 100 µM
same,TGI,[3],> 100 µM
same,TGI,[4],> 100 µM
same,TGI,[5],51.7 µM
same,TGI,[6],> 100 µM
same,TGI,[7],> 100 µM
same,TGI,[8],> 100 µM
same,TGI,[9],> 100 µM
same,TGI,[10],43.4 µM
same,TGI,[11],> 100 µM
same,TGI,[12],91 µM
same,TGI,[13],> 100 µM
same,TGI,[14],> 100 µM
same,TGI,[15],39.8 µM
same,TGI,[16],33.7 µM
same,TGI,[17],> 100 µM
same,TGI,[18],> 100 µM
same,TGI,[19],> 100 µM
same,TGI,[20],47.2 µM
same,TGI,[21],58.8 µM
same,TGI,[22],> 100 µM
same,TGI,[23],57.1 µM
same,TGI,[24],> 100 µM
same,TGI,[25],53.7 µM
same,TGI,[26],> 100 µM
same,TGI,[27],> 100 µM
same,TGI,[28],> 100 µM
same,TGI,[29],> 100 µM
same,TGI,[30],> 100 µM
same,TGI,[31],> 100 µM
same,TGI,[32],> 100 µM
same,TGI,[33],60 µM
same,TGI,[34],> 100 µM
same,TGI,[35],> 100 µM
same,TGI,[36],> 100 µM
same,TGI,[37],37.1 µM
same,TGI,[38],44.6 µM
same,TGI,[39],79.2 µM
same,TGI,[40],51.8 µM
same,TGI,[41],> 100 µM
same,TGI,[42],33 µM
same,TGI,[43],> 100 µM
same,TGI,[44],> 100 µM
same,TGI,[45],40.9 µM
same,TGI,[46],36 µM
same,TGI,[47],85.3 µM
same,TGI,[48],> 100 µM
same,TGI,[49],> 100 µM
CCc1cccc(C)c1N1C(=O)C(=O)C(c2nc3ccccc3o2)C(=O)C1=O,TGI,[1],> 100 µM
same,TGI,[2],> 100 µM
same,TGI,[3],> 100 µM
same,TGI,[4],> 100 µM
same,TGI,[5],> 100 µM
same,TGI,[6],> 100 µM
same,TGI,[7],> 100 µM
same,TGI,[8],> 100 µM
same,TGI,[9],> 100 µM
same,TGI,[11],> 100 µM
same,TGI,[50],> 100 µM
same,TGI,[12],> 100 µM
same,TGI,[13],> 100 µM
same,TGI,[14],> 100 µM
same,TGI,[15],> 100 µM
same,TGI,[16],> 100 µM
same,TGI,[17],> 100 µM
same,TGI,[51],> 100 µM
same,TGI,[18],> 100 µM
same,TGI,[19],> 100 µM
same,TGI,[20],> 100 µM
same,TGI,[21],> 100 µM
same,TGI,[22],> 100 µM
same,TGI,[23],> 100 µM
same,TGI,[24],> 100 µM
same,TGI,[25],> 100 µM
same,TGI,[26],> 100 µM
same,TGI,[27],> 100 µM
same,TGI,[28],> 100 µM
same,TGI,[29],> 100 µM
same,TGI,[52],> 100 µM
same,TGI,[30],> 100 µM
same,TGI,[53],> 100 µM
same,TGI,[31],> 100 µM
same,TGI,[32],> 100 µM
same,TGI,[54],> 100 µM
same,TGI,[33],> 100 µM
same,TGI,[34],> 100 µM
same,TGI,[35],> 100 µM
same,TGI,[36],> 100 µM
same,TGI,[37],> 100 µM
same,TGI,[55],> 100 µM
same,TGI,[38],> 100 µM
same,TGI,[56],> 100 µM
same,TGI,[39],> 100 µM
same,TGI,[40],> 100 µM
same,TGI,[41],> 100 µM
same,TGI,[42],> 100 µM
same,TGI,[43],> 100 µM
same,TGI,[44],> 100 µM
same,TGI,[45],> 100 µM
same,TGI,[57],> 100 µM
same,TGI,[47],> 100 µM
same,TGI,[48],> 100 µM
same,TGI,[49],> 100 µM
O=C(N/C(=C\c1ccc(Br)cc1)c1nc2ccccc2[nH]1)c1ccccc1,TGI,[1],24.7 µM
same,TGI,[2],70.2 µM
same,TGI,[5],29.8 µM
same,TGI,[6],41.1 µM
same,TGI,[7],36.5 µM
same,TGI,[8],43.6 µM
same,TGI,[9],65.1 µM
same,TGI,[11],84.7 µM
same,TGI,[50],41.6 µM
same,TGI,[13],59.6 µM
same,TGI,[14],30.9 µM
same,TGI,[15],58.9 µM
same,TGI,[16],33.5 µM
same,TGI,[17],66.6 µM
same,TGI,[51],29.8 µM
same,TGI,[18],86.3 µM
same,TGI,[20],39.4 µM
same,TGI,[21],40 µM
same,TGI,[25],37 µM
same,TGI,[27],45.6 µM
same,TGI,[28],67.4 µM
same,TGI,[29],36.4 µM
same,TGI,[52],32.8 µM
same,TGI,[31],33.7 µM
same,TGI,[32],30.9 µM
same,TGI,[33],29.6 µM
same,TGI,[34],52.6 µM
same,TGI,[35],52 µM
same,TGI,[36],64.5 µM
same,TGI,[37],30.3 µM
same,TGI,[55],36 µM
same,TGI,[38],33.5 µM
same,TGI,[56],50.9 µM
same,TGI,[40],46.2 µM
same,TGI,[44],59.8 µM
same,TGI,[45],34.2 µM
same,TGI,[46],30.4 µM
same,TGI,[47],32.7 µM
same,TGI,[48],30.9 µM
